Measurements published in patent US6348570B1, “Chromophore containing compounds and their use in determining interleukin-1β convertase activity” (Merck & Co., Inc., priority 1991, dated 2002).
Blank lines part the entries; values can stand above or below the molecule they belong to. Starred links: 1 amine or outer side, 2 acyl side, 3 side chain; linkers in the order of their positions; H or OH if unused. Non-standard residues stand in square brackets, D forms with d. Residues, ends and D or L forms follow the SMILES beside them. No end group written: not given here. *: point of attachment. 3‑amino‑4‑oxobutanoic acid = aspartic acid with its alpha-carboxyl as an aldehyde, O=C[C@H](CC(=O)[*:3])N[*:1]; AMC = Cc1cc(=O)oc2cc(N*)ccc12

Tests used:
[1] = molecular target: T1, Interleukin-1β convertase (ICE), DEAE-purified THP-1 cell lysate (Homo sapiens, UniProt P29466); assay: Coupled fluorometric ICE assay with leucine aminopeptidase (LAPM); type: biochemical; design: Activity of DEAE-purified THP-1 cell lysate; endogenous in cells; host or cells: THP-1 cells; cytosolic extract fractionated on a DEAE-5PW HPLC column; conditions: 25° C.
T1 sequence (P29466 120-297 limits assumed): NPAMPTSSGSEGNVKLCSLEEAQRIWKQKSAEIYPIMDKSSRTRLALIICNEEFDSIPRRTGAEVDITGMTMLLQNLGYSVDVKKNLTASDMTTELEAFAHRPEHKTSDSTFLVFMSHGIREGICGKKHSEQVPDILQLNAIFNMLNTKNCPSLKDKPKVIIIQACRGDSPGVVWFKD
T1 sequence (P29466 317-404 limits assumed): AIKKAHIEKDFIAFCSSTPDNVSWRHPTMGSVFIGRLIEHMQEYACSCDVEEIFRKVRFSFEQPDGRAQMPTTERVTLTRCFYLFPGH
Method: Coupled Assay: Interleukin 1β activity of Activity of DEAE-purified THP-1 cell lysate.
At 25° C., 5 μl of substrate 5 μl of LAPM, 5 μl of ICE were added to […] of buffer.
Reaction is monitored continuously in a Gilford Fluoro-IV Spectrofluorometer. excitation wavelength=380 nm emission wavelength=460 nm 1 uM AMC=100% relative fluoroescence

[2] = molecular target: T1, Interleukin-1β convertase (ICE), DEAE-purified THP-1 cell lysate; type: biochemical; design: Activity of DEAE-purified THP-1 cell lysate; endogenous in cells; host or cells: THP-1 cells; cytosolic extract fractionated on a DEAE-5PW HPLC column; conditions: pH 7.5
Method: [table] At 25° C., 5 μl of substrate 5 μl of enzyme and 5 μl of sample were added to 485 μl of Buffer as defined above. Liberation of AMC was monitored using a Gilford Fluoro IV Spectrofluorometer using an excitation wavelength of 380 nm and an emmission wavelength of 460 nm. 1 μM AMC=100% relative fluorescence.

[3] = molecular target: T2, Interleukin-1β convertase (ICE) (UniProt P29466 120-297; P29466 317-404, limits assumed); assay: cell-based or functional assay
T2 sequence (looked up) 1: T1 sequence (P29466 120-297 limits assumed)
T2 sequence (looked up) 2: T1 sequence (P29466 317-404 limits assumed)

Molecule: CC(=O)N[C@@H](Cc1ccc(O)cc1)C(=O)N[C@H](C(=O)N[C@@H](C)C(=O)N[C@@H](CC(=O)O)C(=O)NCC(=O)Nc1ccc2c(C)cc(=O)oc2c1)C(C)C [Ac-Tyr-Val-Ala-Asp-Gly-AMC, N-(N-Acetyl-tyrosinyl-valinyl-alaninyl-aspartyl-glycinyl)-7-amino-4-methylcoumarin] (Ac-YVADG-{AMC})
velocity of the steady state reaction ([1]; 5 μl substrate, 5 μl LAPM, 5 μl ICE, pH 7.5): 0.05 uM AMC/min
rate constant that describes the approach to steady state (lag phase) ([1]; determined by amount of coupling enzyme LAPM (5 μl of 12.5 units/ml)): 0.44 ± 0.01 min⁻¹

rate constant for inhibition ([2]; 5 μl of 2 μM sample in 500 μl, 25° C.): 0.25 min⁻¹
half-life for the slow onset of inhibition [2]: 2.7 min
type of inhibition ([2]; substrate Ac-Tyr-Val-Ala-Asp-AMC, 25° C.): slow, tight-binding inhibitor
Molecule: CC(=O)N[C@@H](Cc1ccc(O)cc1)C(=O)N[C@H](C(=O)N[C@@H](C)C(=O)NC(C=O)CC(=O)O)C(C)C (stereo partly drawn) [Compound Z, N-(N-acetyl-tyrosinyl-valinyl-alaninyl)-3-amino-4-oxo butanoic acid]

half-life for the slow onset of inhibition [3]: 2.7 min
B1: compound Z (i.e. N-(N-acetyl-tyrosinyl-valinyl-alaninyl)-3-amino-4-oxo butanoic acid) (peptide)
peptide: Ac-YVA[3‑amino‑4‑oxobutanoic acid]
